Measured values reported in article PMC8075810 (Cell Chemical Biology, 2021).

How the values were obtained:
[1] = target: T1, SCoV2 PLpro (Severe acute respiratory syndrome coronavirus 2, UniProt P0DTD1); format: cell-based, SARS-CoV-2; conditions: 10 μM, western blot
[2] = target: T1, SCoV2 PLpro; assay: biochemical; format: biochemical, SARS-CoV-2

C[C@H](c1cccc2ccccc12)N1CCC(C(=O)NCc2cc(F)cc(NC(=O)N3CCN(C)CC3)c2)CC1 [Inhibitor 19, (R)-N-(3-fluoro-5-((1-(1-(naphthalen-1-yl)ethyl)piperidine-4-carboxamido)methyl)phenyl)-4-methylpiperazine-1-carboxamide]
inhibition of SCoV2 PLpro (nsp1-nsp2 cleavage) in 293T cells [1]: significantly inhibited

CC(C)c1cc(C(C)C)c(CC(=O)NS(=O)(=O)Oc2c(C(C)C)cccc2C(C)C)c(C(C)C)c1 [avasimibe]
inhibition at 10 µM ([2]; read-out: inhibition of SCoV2 PLpro): > 50%

O=C(O)C(=O)c1cn(Cc2ccccc2)c2ccc(-c3ccc(OC(F)(F)F)cc3)cc12 [tiplaxtinin]
inhibition of SCoV2 PLpro ([2]; 10 μM compound, probe 7): over 50%

vitamin B12
inhibition of SCoV2 PLpro ([2]; 10 µM): over 50%
